Here are results for 2 compounds from patent US7816389B2, “Organic compounds” (Nabriva Therapeutics Forschungs GmbH, priority 2006, dated 2010).

Converted amounts (≈) assume the structure as drawn. Some results are limits rather than exact numbers.

Holding throughout (assay type): cell-based
Experiment [1] has as its system Staphylococcus aureus, Enterococcus faecalis, Streptococcus pneumoniae, Moraxelia catarrhalis and Escherichia coli. The experiment is described as follows: MIC determination according to CLSI, panel of pathogens. Here is the method: (§1) The antibacterial activity expressed as minimal inhibitory concentration (MIC) was determined according to the approved standard reference recommendations of CLSI (former NCCLS).

For experiment [2], the system named is Enterococcus faecalis ATCC29212 B4. In words: MIC determination according to CLSI. The following applies: ATCC29212, strain B4.
Text: (§2) For example, the compounds of the present invention show antimicrobial, e.g. antibacterial, activity against gram positive bacteria, such as coagulase-positive and coagulase-negative Staphylococci, e.g. Staphylococcus aureus, Styphylococcus epidermis, Staphylococcus haemolyticus, Streptococci, e.g. Streptococcus pyogenes, Streptococcus pneumoniae, Streptococcus agalacticae, Enterococci, e.g. Enterococcus faecium and Moraxellaceae, e.g. Moraxella catarrhalis, Pasteurellaceae, e.g. Haemophilus influenzae, as well as against Mycoplasmactaceae, Chlamydiaceae, e.g. Chlamydia trachomatis, Chlamydia pneumoniae and obligatory anaerobes, e.g. Bacteroides fragilis, Clostridium difficile; in vitro in the Agar Dilution Test or Microdilution Test according to the Climical and Laboratory Standards Institute (CLSI, former National Commitee for Clinical Laboratory Standards (NCCLS) 2006, Document M7-A7 Vol. 26, No. 2: “Methods for dilution Antimicrobial Susceptibility Tests for Bacteria that Grow Aerobically—Seventh Edition, Approved Standard”; and in the in vitro determination of the antibacterial activity against anaerobic bacteria according to National Committee for Clinical Laboratory Standards (NCCLS) VOL. 24, No. 2, M11-A5, Methods for Antimicrobal Susceptibility Testing of Anaerobic Bacteria; Approved Standard; Sixth Edition (2004) and in vivo in the septicaemic mouse model against Staphylococcus aureus.
as §1

For experiment [3], the system named is Staphylococcus aureus (MSSA) ATCC29213 B7. The experiment is described as follows: MIC determination according to CLSI. Particulars: ATCC29213, strain B7.
Text: as §2, §1

Experiment [4] relates to Escherichia coli ATCC25922 B1. The experiment is described as follows: MIC determination according to CLSI. Particulars: ATCC25922, strain B1.
Text: as §2, §1

Experiment [5] has as its system Staphylococcus aureus (MSSA) ATCC10390 B6. In words: MIC determination according to CLSI. Particulars: ATCC10390, strain B6.
Text: as §2, §1

The test system of experiment [6] is Enterococcus faecalis ATCC51299 B5. In words: MIC determination according to CLSI. The following applies: ATCC51299, strain B5.
Text: as §2, §1

Experiment [7] concerns Moraxella catarrhalis ATCC43618 B407. In words: MIC determination according to CLSI. Particulars: ATCC43618, strain B407.
Text: as §2, §1

Experiment [8] relates to Streptococcus pneumoniae ATCC49619 B11. In words: MIC determination according to CLSI. The following applies: ATCC49619, strain B11.
Text: as §2, §1

As for `C=C[C@]1(C)C[C@@H](OC(=O)CSc2cccc(CO)c2)[C@]2(C)C(C)CCC3(CCC(=O)C32)[C@@H](C)[C@@H]1O` (stereo partly shown) [Example 1, 14-O-[(3-Hydroxymethyl-phenylsulfanyl)-acetyl]-mutilin], in experiment [1] (against at least one of the clinical relevant bacterial pathogens), the “antibacterial activity (in vitro)” value is “very good activity”. Besides, in experiment [1] (against at least one of the strains shown in Table 1), the “factor by which MICs are lower than the MICs of Example 2” value is at least 2. In addition, the MIC is 6.4 µg/mL (≈ 12.8 µM) in experiment [2]; at most 0.0125 µg/mL in experiment [3]; 12.8 µg/mL (≈ 25.6 µM) in experiment [4]; at most 0.0125 µg/mL in experiment [5]; 6.4 µg/mL (≈ 12.8 µM) in experiment [6]; at most 0.0125 µg/mL in experiment [7]. In addition, the MIC in experiment [8] was determined as 0.01 µg/mL (≈ 0.02 µM).

On to `C=C[C@]1(C)C[C@@H](OC(=O)CSc2ccc(C)cc2)[C@]2(C)C(C)CCC3(CCC(=O)C32)[C@@H](C)[C@@H]1O` (stereo partly shown) [Example 2, 14-O-[(4-Methyl-phenylsulfanyl)-acetyl]-mutilin, reference compound], for which the MIC in experiment [2] is above 25.6 µg/mL; in experiment [3] it was 0.025 µg/mL (≈ 0.0516 µM); in experiment [4], above 25.6 µg/mL; in experiment [5], 0.025 µg/mL (≈ 0.0516 µM); in experiment [6], above 25.6 µg/mL; in experiment [7], at most 0.0125 µg/mL. In experiment [8], this compound had an MIC of 0.16 µg/mL (≈ 0.33 µM).
